Measurements taken from PubChem BioAssay (NCI).
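Assay format: 96-well plates, 48-hour exposure. The concentration for full growth arrest is given as TGI.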

How the values were obtained:
Experiment in all cases: NCI-60 cell line screen, 48 h
786-0 renal = tested on: 786-0 renal
HCC-2998 colon = tested on: HCC-2998 colon
HT29 colon = tested on: HT29 colon
KM12 colon = tested on: KM12 colon
LOX IMVI melanoma = tested on: LOX IMVI melanoma
MALME-3M melanoma = tested on: MALME-3M melanoma
MDA-MB-231 breast = tested on: MDA-MB-231 breast
MDA-MB-435 = tested on: MDA-MB-435
NCI/ADR-RES ovarian = tested on: NCI/ADR-RES ovarian
OVCAR-4 ovarian = tested on: OVCAR-4 ovarian
OVCAR-8 ovarian = tested on: OVCAR-8 ovarian
SF-295 CNS = tested on: SF-295 CNS
SF-539 CNS = tested on: SF-539 CNS
SK-MEL-28 melanoma = tested on: SK-MEL-28 melanoma
UACC-257 melanoma = tested on: UACC-257 melanoma
UACC-62 melanoma = tested on: UACC-62 melanoma
UO-31 renal = tested on: UO-31 renal

SMILES | TGI (786-0 renal) [µM] | TGI (HCC-2998 colon) [µM] | TGI (HT29 colon) [µM] | TGI (KM12 colon) [µM] | TGI (LOX IMVI melanoma) [µM] | TGI (MALME-3M melanoma) [µM] | TGI (MDA-MB-231 breast) [µM] | TGI (MDA-MB-435) [µM] | TGI (NCI/ADR-RES ovarian) [µM] | TGI (OVCAR-4 ovarian) [µM] | TGI (OVCAR-8 ovarian) [µM] | TGI (SF-295 CNS) [µM] | TGI (SF-539 CNS) [µM] | TGI (SK-MEL-28 melanoma) [µM] | TGI (UACC-257 melanoma) [µM] | TGI (UACC-62 melanoma) [µM] | TGI (UO-31 renal) [µM]
c1ccc2c(Cc3[nH]c4ccccc4c3Cc3c[nH]c4ccccc34)c[nH]c2c1 | 4.25 | 3.26 | 6.07 | 4.84 | 5.57 | 6.3 | 5.29 | 5.16 | 17.2 | 13.2 | 35.6 | 16.3 | 7.03 | 23.9 | 8.47 | > 32.4 | 11.1
O=P12N(CCN1c1ccccc1)CCN2c1ccccc1 | > 100 | > 100 | > 100 | > 100 | > 100 | > 100 | > 100 | > 100 | > 100 | > 100 | > 100 | > 100 | > 100 | > 100 | > 100 | > 100 | > 100
CC(=O)C(=[N+]=[N-])C(=O)N1CCOC1=O | > 10 | > 10 | > 10 | > 10 | > 10 | > 10 | > 10 | > 10 | > 10 | > 10 | > 10 | > 10 | > 10 | > 10 | > 10 | > 10 | > 10
CC(C)=CCC[C@]1(C)C=Cc2c(O)c3c(c(CC=C(C)C)c2O1)O[C@]12C(=C[C@@H]4CC1C(C)(C)O[C@@]2(C/C=C(/C)C(=O)O)C4=O)C3=O | 2.4 | 2.81 | 1.85 | 2.25 | 4.95 | 3.76 | 4.23 | 3.72 | 6.96 | 13.6 | 4.19 | 10 | 0.477 | 3.26 | 6.8 | 4.57 | 3.73
O=C1NC(N2CCOCC2)=N/C1=C\c1ccc(Cl)cc1 | > 100 | > 100 | > 100 | > 100 | > 100 | > 100 | > 100 | > 100 | > 100 | > 100 | > 100 | > 100 | > 100 | > 100 | > 100 | > 100 | > 100
O=C(NC1(c2cc3ccccc3s2)CCCCC1)C1CCC1 | > 100 | > 100 | > 100 | > 100 | > 100 | > 100 | > 100 | > 100 | > 100 | > 100 | > 100 | > 100 | > 100 | > 100 | > 100 | > 100 | > 100
CNNC1=NS(=O)(=O)c2cc(C#N)c(Cl)cc2S1 | > 10 | > 10 | > 10 | > 10 | > 10 | > 10 | > 10 | > 10 | > 10 | > 10 | > 10 | > 10 | > 10 | > 10 | > 10 | > 10 | 3.38
CN(C)CCCc1cccc2[nH]c3c(c12)CN(C)CC3 | > 100 | > 100 | > 100 | > 100 | > 100 | > 100 | > 100 | > 100 | > 100 | > 100 | > 100 | > 100 | > 100 | > 100 | > 100 | > 100 | > 100
O=c1ccn(CC2(CO)CCC2)c(=O)[nH]1 | > 100 | > 100 | > 100 | > 100 | > 100 | > 100 | > 100 | > 100 | > 100 | > 100 | > 100 | > 100 | > 100 | > 100 | > 100 | > 100 | > 100
